What was measured:
Human NLRX1 (NLRX1-WT) = target: T1, Human NLRX1 (NLRX1-WT) (Homo sapiens, UniProt Q86UT6); test: Surface plasmon resonance binding to NLRX1-WT
T1 construct: made in house; host or cells: Pichia pastoris
Method: (§1) NLRX1 production and purification. Human NLRX1 (www.uniprot.org; UniProtKB—Q86UT6 (NLRX1 HUMAN)) was cloned into E. coli, amplified and transfected in Pichia pastoris. P. pastoris was plated onto adenine selective media. Stable transfected colonies were selected and grown within YPD broth at 30° C. for 24 hours, 240 RPM shaking. Starter culture was used to inoculate base media (1% yeast extract, 2% peptone, 1% sorbitol, 2% yeast nitrogen base) containing biotin and buffered with potassium phosphate. Inoculated base media was incubated for 48 hours at 30° C., 240 RPM. P. pastoris was then pelleted by centrifugation and resuspended in expression media (1% sorbitol, 2% yeast nitrogen base) containing biotin and buffered with potassium phosphate. Culture was induced daily for protein production through addition of methanol and incubated for a total of 4 days at 28° C., 240 RPM. After incubation, cells were pelleted by centrifugation and lysed by sonication. Recombinant NLRX1 protein was purified by fast protein liquid chromatography (AktaPrime) using immobilized metal affinity chromatography. Fractions of protein were eluted in 1 mL aliquots and evaluated for NLRX1 content. A mutated NLRX1 protein was generated using similar methods to disrupt binding within the predicted binding site through altering four residues to alanine (D677A, F680A, F681A, and E684A).
(§2) A Biacore T200 was used to evaluate binding to the NLRX1 protein. NLRX1-WT and NLRX1-Mutant were used as proteins to immobilize onto the CM5 sensor chip. NLRX1-WT was diluted in 10 mM sodium acetate buffer at pH 4.0 and immobilized onto the flow cell to a level of ˜3700 RU, using standard amine coupling chemistry. NLRX1-Mutant was diluted in 10 mM sodium acetate buffer at pH 4.0 and immobilized onto the flow cell to a level of ˜3100 RU, using standard amine coupling chemistry. 20 mM MOPS, 150 mM NaCl, 5 mM sodium acetate, 1 mM EDTA, 0.05% Tween-20, pH 8.0 buffer (Running buffer) was used as the immobilization running buffer. Based on the immobilized response values, theoretical Rmax values were calculated. The Rmax values assume 1:1 interaction mechanism. Overnight kinetics were performed for all analytes binding to the immobilized proteins. The kinetics experiments were performed in the μL/min. presence of running buffer+1% DMSO. The flow rate of all solutions was maintained at 50 Analyte concentrations were 0 μM, 2.5 μM, 5 μM 10 μM 20 μM and 40 μM.

CD4+ T cells = test: Immunological screening in vitro in CD4+ splenocytes, flow cytometry; type: cell-based, C57BL/6 mice; details: for proportion of IFNγ producing (IFNγ+) CD4+ T cells / proportion of TNFα producing (TNFα+) CD4+ T cells: wild-type cells, 48 h, PMA and ionomycin; for size and dose dependence of the effect on TNFα producing and IFNγ producing cells: within the range tested
Source text: Spleens were excised from C57BL/6 mice. Spleens were crushed between the frosted ends of microscope slides and filtered to provide a cellular suspension. Red blood cells were lysed through hypotonic lysis. Remaining cells were washed and filtered. CD4+ T cells were enriched within the suspension using magnetic sorting based negative selection. Cells were collected and plated within 96 well plates coated with anti-CD3 and cultured in the presence of NX-13, NX-37, NX-43, NX-44, or NX-50 at 0, 0.1, 1 or 10 micromolar; NX-53, NX-54, NX-55, or NX-56 at 0, 0.1, or 1 micromolar; or NX-45 at 10, 50 or 100 nanomolar for 48 h. During the last 6 h of culture, cells were stimulated with phorbol 12-myristate-13-acetate (PMA) and ionomycin.
Cells were collected from 96 well plates and stained with a cocktail of antibodies for immunophenotyping by flow cytometry. Culture supernatant was collected and assayed for cytokine concentrations by cytometric bead array. Data was captured on a BD FACS Celesta and analyzed using FacsDiva.

[1] = target: T2, mutated NLRX1 protein (D677A, F680A, F681A, E684A) (Homo sapiens, UniProt Q86UT6, D677A/E684A/F680A/F681A); test: Surface plasmon resonance binding to NLRX1-Mutant
T2 construct: made in house; host or cells: Pichia pastoris (by 'similar methods')
T2 sequence (Q86UT6 87-975 D677A/F680A/F681A/E684A): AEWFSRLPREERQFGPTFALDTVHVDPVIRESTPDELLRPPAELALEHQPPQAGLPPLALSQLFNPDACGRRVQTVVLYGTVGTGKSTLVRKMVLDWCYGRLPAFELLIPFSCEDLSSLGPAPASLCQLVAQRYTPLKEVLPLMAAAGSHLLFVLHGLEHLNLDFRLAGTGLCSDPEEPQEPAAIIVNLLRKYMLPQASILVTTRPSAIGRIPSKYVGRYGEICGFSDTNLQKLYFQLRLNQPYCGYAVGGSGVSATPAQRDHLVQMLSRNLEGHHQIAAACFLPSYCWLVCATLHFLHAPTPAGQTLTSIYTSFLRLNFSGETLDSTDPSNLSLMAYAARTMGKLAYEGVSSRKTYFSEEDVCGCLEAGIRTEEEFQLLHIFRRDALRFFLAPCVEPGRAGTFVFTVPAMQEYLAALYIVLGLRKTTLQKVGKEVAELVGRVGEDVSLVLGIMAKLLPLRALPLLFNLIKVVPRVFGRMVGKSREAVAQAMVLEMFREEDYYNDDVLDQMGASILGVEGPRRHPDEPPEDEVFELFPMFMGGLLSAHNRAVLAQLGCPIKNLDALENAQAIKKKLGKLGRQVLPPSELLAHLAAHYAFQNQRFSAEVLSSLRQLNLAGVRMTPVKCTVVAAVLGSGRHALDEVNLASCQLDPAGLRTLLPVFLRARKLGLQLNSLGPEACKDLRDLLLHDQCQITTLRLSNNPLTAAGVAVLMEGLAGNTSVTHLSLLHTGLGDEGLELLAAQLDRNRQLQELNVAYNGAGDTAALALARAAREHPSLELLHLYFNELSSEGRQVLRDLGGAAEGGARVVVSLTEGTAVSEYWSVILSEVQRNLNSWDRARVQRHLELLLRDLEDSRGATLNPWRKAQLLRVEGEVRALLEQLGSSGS
Method: as §1
as §2, with “The Rmax values assume 1:1 interaction mechanism. Overnight kinetics were performed for all analytes binding to the immobilized proteins. The kinetics experiments were performed in the μL/min. presence of running buffer+1% DMSO. The flow rate of all solutions was maintained at 50 Analyte concentrations were 0 μM, 2.5 μM, 5 μM 10 μM 20 μM and 40 μM.” left out

[2] = system: APC^min/+ model of colorectal cancer; test: APCmin/+ model of colorectal cancer; type: in vivo, mice; details: 40 mg/kg oral, four weeks
Method: (§3) Adult BALB/c mice were injected with 5×10^6 CT26 carcinoma cells subcutaneously in the hind flank. Mice were treated daily with NX-43 at 40 mg/kg via gavage beginning on day 9. Mice were weighed daily, and tumor diameter was measured every 3 days up to day 21. Tumors were collected at weighed at necropsy. A second mouse model was used. APC^min/+ mice were administered DSS in drinking water beginning at 5 weeks of age. Mice were challenged with DSS for a total of 5 days prior to return of standard drinking water. After DSS, mice were treated with NX-43 (40 mg/kg) by oral gavage for four weeks. After four weeks, colons were excised and washed. Number of polyps were counted, and colon weights were obtained.

CT26 carcinoma cells = test: CT26 injected solid tumor model; type: in vivo, BALB/c mice
Method: as §3
Total RNA from tumors and lymph nodes can be generated using the Qiagen RNeasy mini kit. cDNA can be generated using the BioRad iScript cDNA synthesis kit. Standard curves can be generated by serial dilution of purified product from a standard PCR reaction with Taq DNA polymerase followed by purification using the Qiagen MinElute PCR purification kit. Expression levels can be obtained from quantitative real-time PCR with SybrGreen supermix on a BioRad CFX96 Thermal cycler followed by normalization to expression of β-actin. Gene expression can be measured for genes marking immune activation such as inflammatory cytokines or surface receptors, immune suppression such as CTLA-4, PD-1, or ARG-1, and tumor growth and metastasis.
H&E stained tumor and lymph node sections can be prepared from tissue collected into 10% buffered formalin and embedded in paraffin. Slides can be examined by a board-certified veterinary pathologist via an Olympus microscope and images will be collected with Image-Pro software. Samples can be scored and evaluated for presence of tumor infiltrating leukocytes, areas of necrosis and proportion of proliferating tumor cells.
Tumors and lymph nodes can be collected into RPMI/FBS buffer containing collagenase (300 U/mL) and DNase (50 U/mL) for digestion. Tissues can be digested for 60 minutes under stirring at 37° C. […]

[3] = target: T3, NLRX1 (C terminus, pdb: 3UN9) (Homo sapiens, UniProt Q86UT6); details: low affinity NLRX1 ligand, published value; cited from earlier work
T3 construct: the published structure for the C terminus of NLRX1 (pdb: 3UN9)
T3 sequence (Q86UT6 629-975 limits assumed): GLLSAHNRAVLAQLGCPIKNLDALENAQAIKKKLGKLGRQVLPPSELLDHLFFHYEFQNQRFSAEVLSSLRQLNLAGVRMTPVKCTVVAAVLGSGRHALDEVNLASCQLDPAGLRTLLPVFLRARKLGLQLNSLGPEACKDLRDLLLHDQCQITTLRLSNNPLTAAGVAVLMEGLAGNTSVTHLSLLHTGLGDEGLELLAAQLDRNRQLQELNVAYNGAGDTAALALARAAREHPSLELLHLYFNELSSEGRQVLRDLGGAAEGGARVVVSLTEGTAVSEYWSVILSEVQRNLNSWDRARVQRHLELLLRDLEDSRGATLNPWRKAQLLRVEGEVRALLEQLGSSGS

[4] = tested at 10, 50 and 100 nanomolar

T1 sequence (Q86UT6 87-975): as the sequence (Q86UT6 87-975 D677A/F680A/F681A/E684A) above, with A591D, A594F, A595F, A598E counted along it

| Compound | function at NLRX1 concluded from the cytokine results (CD4+ T cells) | proportion of IFNγ producing (IFNγ+) CD4+ T cells (CD4+ T cells) | proportion of TNFα producing (TNFα+) CD4+ T cells (CD4+ T cells) | other results |
| --- | --- | --- | --- | --- |
| Cc1cccc(Oc2cc(Oc3cccc(C)n3)cc(Oc3nc(C)cc(C)n3)c2)n1 [NX-37, 2-(3,5-bis(6-methylpyridin-2-yloxy)phenoxy)-4,6-dimethylpyrimidine] | specific inhibitors of NLRX1 | increased | increased | binding to NLRX1 by surface plasmon resonance (in words) (Human NLRX1 (NLRX1-WT)): bind to NLRX1; change in IL-10 producing cells (CD4+ T cells): Neither small molecule elicited a change; size and dose dependence of the effect on TNFα producing and IFNγ producing cells (CD4+ T cells): dose-dependent effects; binding to the mutated NLRX1 protein [1]: Loss of binding |
| Cc1cccc(Oc2cc(Oc3ccccn3)cc(Oc3cccc(C)n3)c2)n1 [NX-54, 2,2′-(5-(pyridin-2-yloxy)-1,3-phenylene)bis(oxy)bis(6-methylpyridine)] | – | minimal effects at high concentrations | – | – |
| Cc1cc(O)cnc1Oc1cc(Oc2ccccc2)cc(Oc2ncc(O)cc2C)c1 [NX-44, 6,6′-(5-phenoxy-1,3-phenylene)bis(oxy)bis(5-methyl-3-pyridinol)] | specific inhibitors of NLRX1 | increased | increased | – |
| Cc1cc(N)cnc1Oc1cc(Oc2ncc(N)cc2C)cc(Oc2ncc(N)cc2C)c1 [NX-45, 6,6′,6″-(benzene-1,3,5-triyltris(oxy))tris(5-methylpyridin-3-amine)] | activators of NLRX1 | reduces | reduces | concentrations at which the significant reduction in IFNγ+ cells occurs (CD4+ T cells; [4]): ≥ 50 nM; concentrations at which the significant reduction in TNFα+ cells occurs (CD4+ T cells; [4]): ≥ 10 nM |
| Cc1cccc(Oc2cc(Oc3cccc(C)n3)cc(Oc3ccccc3C)c2)n1 [NX-55, 2,2′-(5-(6-methylphenoxy)-1,3-phenylene)bis(oxy)bis(6-methylpyridine)] | – | only a small decrease | – | – |
| Cc1cccnc1Oc1cc(Oc2ccccc2)cc(Oc2ncccc2C)c1 [NX-43, 2,2′-(5-phenoxy-1,3-phenylene)bis(oxy)bis(3-methylpyridine)] | specific inhibitors of NLRX1 | increased | increased | binding to NLRX1 by surface plasmon resonance (in words) (Human NLRX1 (NLRX1-WT)): bind to NLRX1; overall tumor burden (as evidenced by the colon weight) [2]: reduced; number of colonic polyps ([2]; post-inflammation treatment): reduced; change in IL-10 producing cells (CD4+ T cells): Neither small molecule elicited a change; size and dose dependence of the effect on TNFα producing and IFNγ producing cells (CD4+ T cells): greater effect than NX-37; time after initiation of treatment at which reduction in tumor diameter was observed (CT26 carcinoma cells; 40 mg/kg daily via gavage): less than 10 days; tumor size relative to untreated controls (CT26 carcinoma cells; 40 mg/kg daily via gavage beginning on day 9): reduce; reduction of overall tumor mass (CT26 carcinoma cells; after 12 days of treatment, 40 mg/kg): over 70%; binding to the mutated NLRX1 protein [1]: Loss of binding |
| Cc1cccc(Oc2cc(Oc3ccccc3)cc(Oc3cccc(C)n3)c2)n1 [NX-53, 2,2′-(5-phenoxy-1,3-phenylene)bis(oxy)bis(6-methylpyridine)] | – | weakly increased | – | – |
| CCCC\C=C/C=C/C=C\CCCCCCCC(=O)O [punicic acid] | – | – | – | published binding affinity to NLRX1 [3]: -6.2 kcal/mol |
| Cc1cccnc1Oc1cc(Oc2ncccc2C)cc(Oc2ncccc2C)c1 [NX-50, 1,3,5-tris (3-methylpyridin-2-yloxy)benzene] | activators of NLRX1 | decreased | decreased | – |
| Cc1cccc(Oc2cc(Oc3cccc(C)n3)cc(Oc3ccccc3O)c2)n1 [NX-56, 2,2′-(5-(phen-6-ol)oxy-1,3-phenylene)bis(oxy)bis(6-methylpyridine)] | – | weakly increased | – | – |

— US10676436B2, “NLRX1 ligands” (Landos Biopharma, Inc., priority 2018, dated 2020)
